According to patent US7915276B2, “Berberrubine derivatives having antifungal activities” (priority 2006, dated 2011):

Key:
[1] = target: T1, chitin synthase 1 of Candida albicans chs2 Δ chs 3 Δ (Candida albicans, UniProt P23316); assay: In vitro enzyme assay for chitin synthase 1 of Candida albicans (enzyme 1); assay type: biochemical; details: relative to polyoxin D (50% inhibitory activity = value 5)
T1 construct: Crude enzyme was prepared using the Candida albicans chs2 Δ chs 3 Δ mutant; endogenous in cells; host or cells: Candida albicans chs2Δ/chs2Δ chs3Δ/chs3Δ mutant; 130,000 x g membrane pellet
T1 sequence (P23316 whole entry, stated change not applied): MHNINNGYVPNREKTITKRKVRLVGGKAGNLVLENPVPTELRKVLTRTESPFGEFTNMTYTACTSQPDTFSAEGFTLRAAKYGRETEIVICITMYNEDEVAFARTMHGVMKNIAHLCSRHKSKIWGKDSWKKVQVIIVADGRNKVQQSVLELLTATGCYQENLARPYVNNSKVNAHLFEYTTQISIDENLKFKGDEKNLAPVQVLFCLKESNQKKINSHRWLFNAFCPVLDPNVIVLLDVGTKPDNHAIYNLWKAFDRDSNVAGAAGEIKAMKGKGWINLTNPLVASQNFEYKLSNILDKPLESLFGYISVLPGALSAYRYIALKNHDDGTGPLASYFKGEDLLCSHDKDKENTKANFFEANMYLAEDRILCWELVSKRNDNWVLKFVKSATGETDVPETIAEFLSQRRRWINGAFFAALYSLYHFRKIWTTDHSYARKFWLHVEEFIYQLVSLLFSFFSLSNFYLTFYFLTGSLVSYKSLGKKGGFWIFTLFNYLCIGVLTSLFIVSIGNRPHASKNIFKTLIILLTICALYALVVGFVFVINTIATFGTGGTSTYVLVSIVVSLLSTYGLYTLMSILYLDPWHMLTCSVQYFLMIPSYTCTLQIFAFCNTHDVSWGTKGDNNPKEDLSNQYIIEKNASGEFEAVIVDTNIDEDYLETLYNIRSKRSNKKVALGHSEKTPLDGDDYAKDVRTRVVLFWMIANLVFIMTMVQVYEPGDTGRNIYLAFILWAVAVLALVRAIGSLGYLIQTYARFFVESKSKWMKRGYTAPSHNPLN
Outline: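 Trypsin-activated crude membrane chitin synthase 1 from C. albicans chs2Δ chs3Δ was incubated 90 min at 30 °C with 1.1 mM UDP-[14C]GlcNAc and 2 mM cobalt acetate in Tris-HCl pH 7.5. Filtered TCA precipitate was counted by scintillation; values are scores 1–8 against polyoxin D (5 = same concentration).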

[2] = system: Aspergillus fumigatus ATCC 16424; assay: In vitro antifungal activity (MIC), NCCLS method; assay type: cell-based; details: 48 hours
Text: (§1) Candida albicans ATCC 10231, Candida lusitaniae ATCC 42720, Candida krusei ATCC 6258, Candida tropicalis ATCC 13803, Candida glabrata ATCC 48435, Candida parapsilosis ATCC 34136, Cryptococcus neoformans ATCC 36556, Aspergillus fumigatus ATCC 16424, Aspergillus flavus ATCC 64025, Aspergillus terreus ATCC 46941 and Mucor ramosissimus ATCC 90286 strains for the MIC (minimum inhibitory concentration) measurement were obtained from ATCC (American Type Culture Collection) in the U.S. The Candida albicans A207(clinical isolate) strain was used by isolating it from the patients.
(§2) The determination of MIC was performed according to the NCCLS (National Committee for Clinical Laboratory Standard) method. Each test sample solution was diluted two-fold and inoculated with a fungal suspension to reach a final inoculum size of 5×10^2 to 2.5×10^3 cell/mL. The Cryptococcus neoformans strain was cultured in the RPMI 1640 medium for 72 hours. Other strains were cultured for 48 hours.

[3] = system: Candida tropicalis ATCC 13803; assay: In vitro antifungal activity (MIC), NCCLS method; assay type: cell-based; details: 48 hours
Text: as §1, §2

[4] = system: Candida albicans ATCC 10231; assay: In vitro antifungal activity (MIC), NCCLS method; assay type: cell-based; details: 48 hours
Text: as §1, §2

[5] = system: Candida albicans A207 (clinical isolate); assay: In vitro antifungal activity (MIC), NCCLS method; assay type: cell-based; details: 48 hours
Text: as §1, §2

Candida krusei ATCC 6258 = assay: In vitro antifungal activity (MIC), NCCLS method; assay type: cell-based; details: 48 hours
Text: as §1, §2

[6] = system: Aspergillus terreus ATCC 46941; assay: In vitro antifungal activity (MIC), NCCLS method; assay type: cell-based; details: 48 hours
Text: as §1, §2

[7] = system: Aspergillus flavus ATCC 64025; assay: In vitro antifungal activity (MIC), NCCLS method; assay type: cell-based; details: 48 hours
Text: as §1, §2

[8] = system: Candida lusitaniae ATCC 42720; assay: In vitro antifungal activity (MIC), NCCLS method; assay type: cell-based; details: 48 hours
Text: as §1, §2

[9] = system: Mucor ramosissimus ATCC 90286; assay: In vitro antifungal activity (MIC), NCCLS method; assay type: cell-based; details: 48 hours
Text: as §1, §2

[10] = system: Candida glabrata ATCC 48435; assay: In vitro antifungal activity (MIC), NCCLS method; assay type: cell-based; details: Candida glabrata ATCC 48435; 48 hours
Text: as §1, §2

[11] = system: Cryptococcus neoformans ATCC 36556; assay: In vitro antifungal activity (MIC), NCCLS method; assay type: cell-based; details: RPMI 1640 medium, 72 hours
Text: as §1, §2

[12] = system: Candida parapsilosis ATCC 34136; assay: In vitro antifungal activity (MIC), NCCLS method; assay type: cell-based; details: Candida parapsilosis ATCC 34136; 48 hours
Text: as §1, §2

[13] = target: T2, chitin synthase 2 of Saccharomyces cerevisiae ECY38-38A(pAS6) (Saccharomyces cerevisiae, UniProt P14180); assay: In vitro enzyme assay for chitin synthase 2 of Saccharomyces cerevisiae (enzyme 2); assay type: biochemical; details: relative to polyoxin D (50% inhibitory activity = value 5)
T2 construct: made in house; host or cells: Saccharomyces cerevisiae ECY38-38A (chs1-23 chs2::LEU2 cal1/csd2) carrying plasmid pAS6, grown in galactose medium; 130,000 x g membrane pellet
T2 sequence (P14180 whole entry): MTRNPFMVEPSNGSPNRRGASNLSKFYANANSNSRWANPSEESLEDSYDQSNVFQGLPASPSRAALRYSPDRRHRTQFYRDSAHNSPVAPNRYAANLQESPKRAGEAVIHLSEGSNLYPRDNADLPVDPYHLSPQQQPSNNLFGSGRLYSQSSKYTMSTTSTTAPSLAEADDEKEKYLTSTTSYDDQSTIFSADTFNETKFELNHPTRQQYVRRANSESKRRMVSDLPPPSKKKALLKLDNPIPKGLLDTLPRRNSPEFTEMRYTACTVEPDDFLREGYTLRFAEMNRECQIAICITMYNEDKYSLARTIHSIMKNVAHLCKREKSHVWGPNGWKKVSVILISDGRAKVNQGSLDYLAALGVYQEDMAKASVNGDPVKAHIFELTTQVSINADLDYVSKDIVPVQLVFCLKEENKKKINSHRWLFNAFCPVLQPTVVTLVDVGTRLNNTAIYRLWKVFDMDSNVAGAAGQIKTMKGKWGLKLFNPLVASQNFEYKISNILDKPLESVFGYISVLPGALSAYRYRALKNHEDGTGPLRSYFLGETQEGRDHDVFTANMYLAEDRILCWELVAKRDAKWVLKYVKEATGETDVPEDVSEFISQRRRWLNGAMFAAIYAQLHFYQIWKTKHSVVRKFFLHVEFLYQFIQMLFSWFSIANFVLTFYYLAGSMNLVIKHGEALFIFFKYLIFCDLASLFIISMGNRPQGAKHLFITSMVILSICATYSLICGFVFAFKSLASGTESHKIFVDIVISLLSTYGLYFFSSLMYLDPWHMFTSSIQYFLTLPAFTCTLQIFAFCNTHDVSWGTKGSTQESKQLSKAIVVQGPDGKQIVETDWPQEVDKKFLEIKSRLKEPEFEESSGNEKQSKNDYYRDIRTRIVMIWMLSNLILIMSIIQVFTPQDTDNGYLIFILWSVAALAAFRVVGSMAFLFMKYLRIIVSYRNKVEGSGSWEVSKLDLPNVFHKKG
Outline: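 Values are scores: 5 means 50% inhibition at the same concentration as polyoxin D, lower scores 2- to 16-fold higher concentration, higher scores ½ to ⅛. Radiolabel from 1.1 mM UDP-[14C]-GlcNAc was incorporated into TCA-insoluble chitin over 90 min at 30 °C (pH 7.5 Tris, 2 mM Co2+). The enzyme was a trypsin-activated membrane fraction from CHS2-only S. cerevisiae ECY38-38A(pAS6).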

| Substance | Relative activity Enzyme 1 [1] | MIC (minimum inhibitory concentration) [2] | MIC (minimum inhibitory concentration) [3] | MIC (minimum inhibitory concentration) [4] | MIC (minimum inhibitory concentration) [5] | MIC (minimum inhibitory concentration) (Candida krusei ATCC 6258) | MIC (minimum inhibitory concentration) [6] | MIC (minimum inhibitory concentration) [7] | MIC (minimum inhibitory concentration) [8] | MIC (minimum inhibitory concentration) [9] | MIC (minimum inhibitory concentration) [10] | MIC (minimum inhibitory concentration) [11] | MIC (minimum inhibitory concentration) [12] | Relative activity Enzyme 2 [13] |
| --- | --- | --- | --- | --- | --- | --- | --- | --- | --- | --- | --- | --- | --- | --- |
| 13-(4-Isopropylbenzyl)-9-O-(3-hydroxypropyl)berberrubine iodide [Compound No. 21] | 3 (Compounds having the inhibitory activity at 2-fold, 4-fold, 8-fold and 16-fold higher concentrations than that of polyoxin D were given the values of 4, 3, 2 and 1, respectively) | 2 µg/mL | 0.5 µg/mL | 0.5 µg/mL | 0.5 µg/mL | 1 µg/mL | 8 µg/mL | 8 µg/mL | 2 µg/mL | 4 µg/mL | 2 µg/mL | 1 µg/mL | 2 µg/mL | 6 (compounds having the inhibitory activity at ½, ¼ and ⅛ lower concentrations than that of polyoxin D were given the values of 6, 7 and 8, respectively) |
| 13-(4-Isopropylbenzyl)-9-O-(4-isopropylbenzyl)berberrubine bromide [Compound No. 26] | 2 (Compounds having the inhibitory activity at 2-fold, 4-fold, 8-fold and 16-fold higher concentrations than that of polyoxin D were given the values of 4, 3, 2 and 1, respectively) | 4 µg/mL | 1 µg/mL | 1 µg/mL | 1 µg/mL | 2 µg/mL | 8 µg/mL | 8 µg/mL | 4 µg/mL | 8 µg/mL | 2 µg/mL | 2 µg/mL | 8 µg/mL | 5 (A compound having the same inhibitory activity as that of polyoxin D at the same concentration was given the value 5) |
| 13-(4-Isopropylbenzyl)-9-O-(4-isopropylbenzyl)berberrubine chloride [Compound No. 58] | 2 (Compounds having the inhibitory activity at 2-fold, 4-fold, 8-fold and 16-fold higher concentrations than that of polyoxin D were given the values of 4, 3, 2 and 1, respectively) | 4 µg/mL | 1 µg/mL | 1 µg/mL | 1 µg/mL | 2 µg/mL | 8 µg/mL | 8 µg/mL | 4 µg/mL | 8 µg/mL | 2 µg/mL | 2 µg/mL | 8 µg/mL | 5 (A compound having the same inhibitory activity as that of polyoxin D at the same concentration was given the value 5) |
| 13-(4-Isopropylbenzyl)-9-O-(4-tert-butylbenzyl)berberrubine bromide [Compound No. 25] | 2 (Compounds having the inhibitory activity at 2-fold, 4-fold, 8-fold and 16-fold higher concentrations than that of polyoxin D were given the values of 4, 3, 2 and 1, respectively) | 4 µg/mL | 1 µg/mL | 1 µg/mL | 1 µg/mL | 4 µg/mL | 8 µg/mL | 8 µg/mL | 4 µg/mL | 8 µg/mL | 4 µg/mL | 2 µg/mL | 8 µg/mL | 5 (A compound having the same inhibitory activity as that of polyoxin D at the same concentration was given the value 5) |
| 13-(4-Isopropylbenzyl)-9-O-(4-tert-butylbenzyl)berberrubine chloride [Compound No. 57] | 2 (Compounds having the inhibitory activity at 2-fold, 4-fold, 8-fold and 16-fold higher concentrations than that of polyoxin D were given the values of 4, 3, 2 and 1, respectively) | 4 µg/mL | 1 µg/mL | 1 µg/mL | 1 µg/mL | 4 µg/mL | 8 µg/mL | 8 µg/mL | 4 µg/mL | 8 µg/mL | 4 µg/mL | 2 µg/mL | 8 µg/mL | 5 (A compound having the same inhibitory activity as that of polyoxin D at the same concentration was given the value 5) |
| 13-(4-Isopropylbenzyl)-9-O-(6-chlorohexyl)berberrubine chloride [Compound No. 54] | 2 (Compounds having the inhibitory activity at 2-fold, 4-fold, 8-fold and 16-fold higher concentrations than that of polyoxin D were given the values of 4, 3, 2 and 1, respectively) | 2 µg/mL | 0.5 µg/mL | 0.5 µg/mL | 0.5 µg/mL | 1 µg/mL | 8 µg/mL | 8 µg/mL | 2 µg/mL | 4 µg/mL | 2 µg/mL | 1 µg/mL | 2 µg/mL | 6 (compounds having the inhibitory activity at ½, ¼ and ⅛ lower concentrations than that of polyoxin D were given the values of 6, 7 and 8, respectively) |
| 13-(4-Isopropylbenzyl)-9-O-allylberberrubine chloride [Compound No. 55] | 3 (Compounds having the inhibitory activity at 2-fold, 4-fold, 8-fold and 16-fold higher concentrations than that of polyoxin D were given the values of 4, 3, 2 and 1, respectively) | 8 µg/mL | 1 µg/mL | 1 µg/mL | 1 µg/mL | 2 µg/mL | 8 µg/mL | 8 µg/mL | 2 µg/mL | 4 µg/mL | 8 µg/mL | 2 µg/mL | 4 µg/mL | 6 (compounds having the inhibitory activity at ½, ¼ and ⅛ lower concentrations than that of polyoxin D were given the values of 6, 7 and 8, respectively) |
